Test results taken from patent US6569902B2, “Nitrone inhibition of cancer development” (Oklahoma Medical Research Foundation, priority 2000, dated 2003).
Like-named read-outs stand apart in the source and are kept apart here.

How the values were obtained:
rats fed the CDAA diet = settings: cited from earlier work
[1] = test system: livers of male Wistar rats fed the CDAA diet; test: Example 2: oxidative hepatocyte injuries (8-OHdG, TBARS); assay type: in vivo, rat; settings: for nuclear DNA 8-OHdG content increased by CDAA diet feeding: all doses, CDAA diet 16 weeks
Excerpt: (§1) Animal experiment. After acclimation, rats were divided equally into 22 groups consisting of 5 animals each. Animals in group 1 received the CDAA diet alone. […] Groups 5-7, 8-10, 11-13 and 14-16 received the CDAA diet containing the low, middle, and high doses of 4-OHPBN, 3-OHPBN, 2-OHPBN and 2-SPBN, respectively. Group 17 received the CSAA diet alone. […] All animals were sacrificed by exsanguination under light ether anesthesia 16 weeks after commencement, and the livers excised. Slices 5-mm-thick were taken from the left lateral, median and right lateral lobes of the livers, fixed in 10% neutrally-buffered formalin for 24 hours and then embedded in paraffin. Five serial 4-μm-thick sections were prepared from each fixed liver slice and used for histological and immunohistochemical assessment as described below. The remaining portions of the livers were immediately frozen under liquid nitrogen and stored at −80° C. until use.
Determination of oxidative hepatocyte injuries. Levels of oxidative damage to the hepatocytes were determined on frozen liver samples. Oxidative damage to nuclear DNA was assessed as previously described, using the amount of 8-hydroxydeoxyguanosine (8-OHdG) to 10^6 deoxyguanosine (dG) ratio as a parameter (Nakae et al. 1995). Oxidative injury to extra-nuclear components was assessed as described elsewhere, by determining picomole malondialdehyde equivalent (MDA eq.) levels of 2-thiobarbituric acid-reacting substances (TBARS) per milligram protein (Nakae et al. 1990).
(§2) Statistics. Inter-group differences in quantitative data for multiple groups were recognized to be significant, when p values smaller than 0.05 were obtained by the Dunnett multiple comparison test employed after one-way analysis of variance to determine the variation among the group means followed by the Bartlett's test to determine the homogeniety of variance.

[2] = test system: GST-P-positive lesions in livers of male Wistar rats fed the CDAA diet; test: Example 2: numbers and sizes of GST-P-positive liver lesions, CDAA diet for 16 weeks; assay type: in vivo, rat; settings: for effect on the number or sizes of the GST-P-positive lesions: CDAA diet
Procedure: Animals. A total of 110 male Wistar rats were obtained at 5 weeks of age from Charles River Japan, Inc., Atsugi, Kanagawa, Japan. Experimentation began after a 1-week acclimation on a basal diet (CE-2 diet, Clea Japan, Meguro, Tokyo, Japan). Rats were housed 5 each in plastic cages with white flake bedding (Kansai Animal Corp., City of Kyoto, Kyoto, Japan) in a standard atmosphere (temperature, 25±3° C.; relative humidity, 55±8%; ventilation, 10-15/hour; and a 12-hour dark/light cycle). Free access to food and tap water was allowed throughout the acclimation and experimental periods.
Diets and chemicals. The CDAA diet and its control, a choline-supplemented, L-amino acid-defined (CSAA) diet (Nakae et al. 1992; and Nakae et al. 1990) were obtained from Dyets, Inc., Bethlehem, Pa. […] 2-Sulfoxy-PBN (2-SPBN) was purchased from Aldrich Chemical Co. (Milwaukee, Wis.).
as §1
(§3) Histological and immunohistochemical assessments. Histological assessment was performed using sections routinely stained with hematoxylin/eosin and Masson's trichrome procedures. Gradation of fibrosis was quantitatively evaluated in groups 1, 4, 7, 10, 13, 16 and 17 by calculating the percent area occupied by collagen fiber stained blue by Masson's trichrome method using an IPAP image analyzing system (Sumika Technoservice Corp., City of Osaka, Osaka, Japan). GST-P-positive lesions were visualized immunohistochemically. Lesions consisting of more than 6 cells were quantified using the IPAP system as described elsewhere (Kishida et al. 2000). The amount of apoptosis and the cellular proliferative activity were determined in groups 1, 4, 7, 10, 13, 16 and 17, using the double staining techniques by combination of the GST-P immunohistochemistry as above with the in situ terminal deoxynucleotidyl transferase-mediated dUTP-biotin nick end-labeling method (Gold et al. 1994) and the enhanced polymer one-step staining method for proliferating cell nuclear antigen (Tsutsumi et al. 1995), respectively. Numbers of apoptotic and proliferating hepatocytes among the 1000-5000 hepatocytes in GST-P-positive lesions and 5000 hepatocytes in surrounding tissue were counted under light microscopy to obtain percentages that are hereafter referred as apoptotic and proliferative indices, respectively.
as §2

[3] = test system: hepatocytes of male Wistar rats fed the CDAA diet; test: Example 2: apoptotic and proliferative indices in GST-P-positive lesions and surrounding tissue; assay type: in vivo, rat; settings: high dose 0.090%
Excerpt: as §1, §3, §2

[4] = test system: livers of male Wistar rats fed the CDAA diet; test: Example 2: histological liver injury (fibrosis, fatty liver); assay type: in vivo, rat; settings: high dose 0.090%, CDAA diet 16 weeks
Excerpt: as §1, §3, §2

[5] = test system: rat liver microsome peroxidation; settings: read-out: IC50, inhibition of rat liver microsome peroxidation; cited from earlier work

Compound: CCCCCCCCCCCCCCCCCCOC1=C(O)[C@@H]([C@@H](O)CO)OC1=O [2-O-octadecylascorbic acid]
- inhibition of rat hepatocarcinogenesis (rats fed the CDAA diet; chronic feeding in the CDAA diet (Mizumoto et al. 1994)): inhibits rat hepatocarcinogenesis by chronic feeding in the CDAA diet greater than its hydrophilic parent, L-ascorbic acid

Compound: CC(C)(C)[N+]([O-])=Cc1ccccc1O [2-OHPBN, 2-hydroxyphenyl N-tert-butylnitone]
- nuclear DNA 8-OHdG content increased by CDAA diet feeding [1]: Neither 2-OHPBN nor 2-SPBN decreased
- TBARS level enhanced by CDAA feeding ([1]; all three doses): Neither 2-OHPBN nor 2-SPBN affected
- effect on the number or sizes of the GST-P-positive lesions [2]: Neither 2-OHPBN nor 2-SPBN had any affect
- effect on apoptotic indices [3]: Neither 2-OHPBN nor 2-SPBN altered
- grade of fibrosis versus group 1 [4]: no affect

Compound: CC(C)(C)[N+]([O-])=Cc1ccccc1S(=O)(=O)O [2-SPBN, 2-sulfoxyphenyl N-tert-butylnitone]
- nuclear DNA 8-OHdG content increased by CDAA diet feeding [1]: Neither 2-OHPBN nor 2-SPBN decreased
- TBARS level enhanced by CDAA feeding ([1]; all three doses): Neither 2-OHPBN nor 2-SPBN affected
- effect on the number or sizes of the GST-P-positive lesions [2]: Neither 2-OHPBN nor 2-SPBN had any affect
- effect on apoptotic indices [3]: Neither 2-OHPBN nor 2-SPBN altered
- grade of fibrosis versus group 1 [4]: no affect

Compound: CC(C)(C)[N+]([O-])=Cc1cccc(O)c1 [3-OHPBN, 3-hydroxyphenyl N-tert-butylnitrone]
- nuclear DNA 8-OHdG content increased by CDAA diet feeding [1]: significantly inhibited
- TBARS level enhanced by CDAA feeding ([1]; high dose 0.090% only): significantly inhibited
- sizes of GST-P-positive lesions, % of the group 1 value ([2]; high dose 0.090% in CDAA diet): 9%
- apoptotic index in the surrounding tissue, % of the group 1 value [3]: about 40%
- grade of fibrosis versus group 1 [4]: significantly lower

Compound: CC(C)(C)[N+]([O-])=Cc1ccc(O)cc1 [4-OHPBN, 4-hydroxyphenyl N-tert-butylnitrone]
- nuclear DNA 8-OHdG content increased by CDAA diet feeding [1]: significantly inhibited
- TBARS level enhanced by CDAA feeding ([1]; all three doses): significantly exerted an effect
- sizes of GST-P-positive lesions, % of the group 1 value ([2]; high dose 0.090% in CDAA diet): 18%
- sizes of GST-P-positive lesions, % of the group 1 value ([2]; low dose 0.009% in CDAA diet): 24%
- sizes of GST-P-positive lesions, % of the group 1 value ([2]; middle dose 0.045% in CDAA diet): 19%
- apoptotic index in the surrounding tissue, % of the group 1 value [3]: about 40%
- proliferative index in the lesions, % of the group 1 value [3]: approximately 31%
- proliferative index in the surrounding tissue, % of the group 1 value [3]: about 49%
- grade of fibrosis versus group 1 [4]: significantly lower

Compound: CC(=O)Oc1ccccc1C(=O)O [Acetylsalicylic acid]
- effect on nodule size, nodule number and 8-OHdG content (rats fed the CDAA diet; not nearly as potent as PBN): some effect

Compound: Cc1c(C)c2c(c(C)c1O)CC[C@@](C)(CCC[C@H](C)CCC[C@H](C)CCCC(C)C)O2 [Alpha tocopherol]
- effect on any of the parameters (rats fed the CDAA diet; rat, in vivo): very little effect

Compound: Cc1cc(C(C)(C)C)c(O)c(C(C)(C)C)c1 [BHT]
- IC50 [5]: 6 µM

Compound: O=C(CBr)c1ccc(Br)cc1 [BPB, p-bromophenocybromide]
- activity in suppressing the size of the nodules (rats fed the CDAA diet; rat, in vivo): little activity

Compound: CCCCCCCCCCCCCCCCCCOC1=C(O)C([C@@H](O)CO)OC1=O (stereo partly shown) [CV3611]
- lowering of nodule size (rats fed the CDAA diet; 0.05% level): 44%

Compound: c1ccc(Nc2ccc(Nc3ccccc3)cc2)cc1 [N,N′-diphenyl-p-phenylenediamine]
- effect on sizes and numbers of GST-P-positive lesions (rats fed the CDAA diet; livers of rats fed the CDAA diet (Nakae et al. 1994)): reduces the sizes of GST-P-positive lesions without affecting their numbers

Compound: CC(Cc1ccc(O)c(O)c1)C(C)Cc1ccc(O)c(O)c1 (stereo not shown) [NGDA, nordihydroguaiaric acid]
- lowering of nodule size (rats fed the CDAA diet; 0.1% level): 39%

Compound: Cc1c(C)c2c(c(C)c1O)CCC(C)(C(=O)O)O2 (stereo not shown) [Trolox]
- IC50 [5]: 40 µM
- effect on any of the parameters (rats fed the CDAA diet; rat, in vivo): very little effect
